We go through 9 compounds from patent US8741947B2, “Biologically active macrolides, compositions, and uses thereof” (The United States of America, as represented by the …, priority 2000, dated 2014).

The structures appear in SMILES notation. In brackets after ≈: the same amount, converted by molar mass.

The target in series [1] is Chromaffin Granule Membrane V-ATPase. As to the kind of experiment: V-ATPase inhibitory assay, chromaffin granule membrane. Format: biochemical. The note with it: Chromaffin Granule Membrane V-ATPase (bovine); read-out: V-ATPase (Ki, nM) CGM. How it is done: (§1) The V-ATPase inhibitory assays were performed on representative compound(s) of the present invention using non-mammalian or mammalian (e.g., bovine cromaffin granule) V-ATPases as described by Bowman et al., Proc. Natl. Acad. Sci. USA, 85, 7972-7976, 1988.

Series [2] addresses Neurospora crassa vacuolar membrane V-ATPase. As to the kind of experiment: V-ATPase inhibitory assay, Neurospora crassa vacuolar membrane. Format: biochemical. Conditions: read-out: V-ATPase (Ki, nM) NCVM. On the procedure:
as §1

Series [3] relates to leukemia (MOLT-4) human tumor cell line. Kind of series: 2-day in vitro cytotoxicity assay. Format: cell-based. Conditions: MOLT-4 leukemia cell line, 2-day in vitro assay. On the procedure: (§2) A 2.0 mg solution of chondropsin A in pyridine-d5 was kept at room temperature and ^1H NMR spectra were periodically acquired. […] After 7 days, the pyridine was removed under reduced pressure and the residue was purified by HPLC as described above to give 0.6 mg of a compound that by FABMS, HPLC retention time, ^1H NMR, and HSQC data, was identical to chondropsin D. Thus, chondropsin D can be prepared from chondropsin A via a base-catalyzed transesterification reaction in which the ester migrates from O-34 to O-67. The characterization of chondropsin D was facilitated by spectral analysis of the product of the corresponding base-catalyzed transesterification reaction of the dimethyl ester of chondropsin A (FIG. 1A, compound (3)), which produced the dimethyl ester of chondropsin D (FIG. 1A, compound (9)). Chondropsin D was evaluated for cytotoxic activity towards melanoma (LOX) and leukemia (MOLT-4) human tumor cell lines in a 2-day in vitro assay, the procedure for which is described in Bokesch et al., J. Nat. Prod., 62, 633-635 (1999).

Series [4] relates to melanoma (LOX) human tumor cell line. Kind of series: 2-day in vitro cytotoxicity assay. Conditions: 2-day in vitro assay. The format is cell-based. On the procedure: as §2

In general, Ki refers to a dissociation constant, usually derived from enzyme kinetics or from competition with a known ligand.

For the compound `COC(=O)C(C)(C)C(O)C(C)C(=O)C(C)(C)C=CC(=O)NC(CC(C)C)C(O)C(C)C=C(C)C(O)C(C)CCC(O)C(C)C(=O)NC(C(C)O)C1OC(=O)C(C(O)C(=O)O)NC(=O)C=CC=CCCC=CC=CCC2CC(C)CC(CC(O)C(C)C(O)C(C)=CC(C)C(O)C(C)=CCC(OC(=O)CC(O)C(=O)O)C1C)O2` (centres unmarked) [Chondropsin A, 73-deoxy, 73-deoxychondropsin A], the inhibition constant (Ki) was found to be 3000 nM in series [1] and 100 nM in series [2].
As for `COC(=O)C(C)(C)C(O)C(C)C(=O)C(C)(C)C=CC(=O)NC(C(O)C(C)C)C(O)C(C)C=C(C)C(O)C(C)CCC(O)C(C)C(=O)NC1C(C)OC(=O)C(C(O)C(=O)O)NC(=O)C=CC=CCCC=CC=CCC2CC(C)CC(CC(O)C(C)C(O)C(C)=CC(C)C(O)C(C)=CCC(OC(=O)CC(O)C(=O)O)C(C)C1O)O2` (centres unmarked) [Chondropsin D, chondropsin D], the Ki in series [1] is > 10000 nM; in series [2], 140 nM. The “IC50 (cytotoxic activity)” value in series [3] is ~0.25 µg/mL (≈ 0.157 µM); in series [4], “approximately 10 ng/mL”.
Take `COC(=O)C(C)(C)C(O)C(C)C(=O)C(C)(C)C=CC(=O)NC(C(O)C(C)C)C(O)C(C)C=C(C)C(O)C(C)CCC(O)C(C)C(=O)NC(C(C)O)C1OC(=O)C(C(O)C(=O)O)NC(=O)C=CC=CCCC=CC=CCC2CC(C)CC(CC(O)C(C)C(O)C(C)=CC(C)C(O)C(C)=CCC(OC(=O)CC(O)C(=O)O)C1C)O2` (centres unmarked) [Chondropsin A, chondropsin A]: the Ki in series [1] was > 10000 nM; in series [2], 800 nM.
Turning to `C/C=C/[C@H]1O[C@@](O)([C@@H](C)[C@H](O)[C@H](C)[C@H]2OC(=O)/C(OC)=C/C(C)=C/[C@@H](C)[C@@H](O)[C@@H](CC)[C@@H](O)[C@H](C)C/C(C)=C/C=C/[C@@H]2OC)C[C@@H](O[C@H]2C[C@@H](O)[C@H](OC(N)=O)[C@@H](C)O2)[C@@H]1C` [Concanamycin A, concanamycin A, reference compound], the inhibition constant (Ki) was found to be 6 nM in series [1] and 4 nM in series [2].
On to `CO/C1=C\C(C)=C\[C@@H](C)[C@@H](O)[C@@H](C)C/C(C)=C/C=C/[C@H](OC)[C@@H]([C@@H](C)[C@@H](O)[C@H](C)[C@@]2(O)C[C@@H](O)[C@H](C)[C@@H](C(C)C)O2)OC1=O` [Bafilomycin A1, bafilomycin A1, reference compound], for which the figures for the Ki in series [1] and in series [2] were 6 nM and 13 nM, respectively.
As for `COC(=O)C(O)CC(=O)OC1CC=C(C)C(O)C(C)C=C(C)C(O)C(C)C(O)CC2CC(C)CC(CC=CC=CCCC=CC=CC(=O)NC(C(O)C(=O)OC)C(=O)OC(C(NC(=O)C(C)C(O)CCC(C)C(O)C(C)=CC(C)C(O)C(NC(=O)C=CC(C)(C)C(=O)C(C)C(O)C(C)(C)C(=O)OC)C(O)C(C)C)C(C)O)C1C)O2` (centres unmarked) [Chondropsin A, dimethyl ester, chondropsin A dimethyl ester], the values for the Ki in series [1] and in series [2] were 500 nM and 50 nM, respectively.
As for `CC/C=C\C=C/C(=O)N/C=C/C[C@H]1C[C@@H](O)[C@@H](C)C/C=C/Cc2cccc(O)c2C(=O)O1` [Salicylihalamide A, salicylihalamide A, reference compound], the inhibition constant (Ki) in series [1] is 6.5 nM; in series [2], > 10000 nM.
The like results for `COC(=O)C(C)(C)C(O)C(C)C(=O)C(C)(C)C=CC(=O)NC(C(O)C(C)C)C(O)C(C)C=C(C)C(O)C(C)CCC(O)C(C)C(=O)NC(C(C)O)C1OC(=O)C(C(O)C(=O)O)NC(=O)C=CC=CCCC=CC=CCC2CC(C)CC(CC(O)C(C)C(O)C(C)=CC(C)C(O)C(C)=CCC(O)C1C)O2` (centres unmarked) [Chondropsin B, chondropsin B] were, in that order, 6000 nM and 200 nM.
The corresponding values for `CC1=CCC(OC(=O)CC(O)C(=O)O)C(C)C(C(NC(=O)C(C)C(O)CCC(C)C(O)C(C)=CC(C)C(O)C(CC(C)C)NC(=O)C=CC(C)(C)C(=O)C(C)C(O)C(C)C)C(C)O)OC(=O)C(C(O)C(=O)O)NC(=O)C=CC=CCCC=CC=CCC2CC(C)CC(CC(O)C(C)C(O)C(C)=CC(C)C1O)O2` (centres unmarked) [Chondropsin C, chondropsin C] are 3000 nM and 80 nM.
